Reference: patent publication US11028087B2, “2,6-disubstituted-9-cyclopentyl-9H-purines, use thereof as medicaments, and pharmaceutical compositions” (UNIVERZITA PALACKEHO V OLOMOUCI, priority 2017, dated 2021)
Positions count from the first letter of the chain named. Where two headings read alike, the source gives them in different places.

Experiments:
Assay in all cases: Kinase inhibition assay with [γ-33P]ATP
Format in all cases: biochemical
CDK2/Cyclin E = target: T1, CDK2/Cyclin E (Homo sapiens, UniProt P24941); conditions: histone H1, 15 μM ATP; read-out: IC50 values (μM) CDK2
T1 construct: made in house; host or cells: Sf9 insect cells, baculoviral infection
Summary of the method: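 Human CDK2/Cyclin E, expressed in baculovirus-infected Sf9 insect cells and purified on a NiNTA column, was assayed with 1 mg/mL histone H1 substrate, 15 μM ATP plus 0.05 μCi [γ-33P]ATP and test compound in 10 μL of buffer (60 mM HEPES-NaOH pH 7.5, 3 mM MgCl2, 3 mM MnCl2, 3 μM Na-orthovanadate, 1.2 mM DTT, PEG20,000). Reactions were quenched with 5 μL 3% H3PO4, spotted onto P-81 phosphocellulose, washed and dried.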

FLT3 D835 = target: T2, FLT3 D835 (Homo sapiens, UniProt P36888); conditions: AGLT substrate, 1 μM ATP
T2 sequence (P36888 1-993 D835Y): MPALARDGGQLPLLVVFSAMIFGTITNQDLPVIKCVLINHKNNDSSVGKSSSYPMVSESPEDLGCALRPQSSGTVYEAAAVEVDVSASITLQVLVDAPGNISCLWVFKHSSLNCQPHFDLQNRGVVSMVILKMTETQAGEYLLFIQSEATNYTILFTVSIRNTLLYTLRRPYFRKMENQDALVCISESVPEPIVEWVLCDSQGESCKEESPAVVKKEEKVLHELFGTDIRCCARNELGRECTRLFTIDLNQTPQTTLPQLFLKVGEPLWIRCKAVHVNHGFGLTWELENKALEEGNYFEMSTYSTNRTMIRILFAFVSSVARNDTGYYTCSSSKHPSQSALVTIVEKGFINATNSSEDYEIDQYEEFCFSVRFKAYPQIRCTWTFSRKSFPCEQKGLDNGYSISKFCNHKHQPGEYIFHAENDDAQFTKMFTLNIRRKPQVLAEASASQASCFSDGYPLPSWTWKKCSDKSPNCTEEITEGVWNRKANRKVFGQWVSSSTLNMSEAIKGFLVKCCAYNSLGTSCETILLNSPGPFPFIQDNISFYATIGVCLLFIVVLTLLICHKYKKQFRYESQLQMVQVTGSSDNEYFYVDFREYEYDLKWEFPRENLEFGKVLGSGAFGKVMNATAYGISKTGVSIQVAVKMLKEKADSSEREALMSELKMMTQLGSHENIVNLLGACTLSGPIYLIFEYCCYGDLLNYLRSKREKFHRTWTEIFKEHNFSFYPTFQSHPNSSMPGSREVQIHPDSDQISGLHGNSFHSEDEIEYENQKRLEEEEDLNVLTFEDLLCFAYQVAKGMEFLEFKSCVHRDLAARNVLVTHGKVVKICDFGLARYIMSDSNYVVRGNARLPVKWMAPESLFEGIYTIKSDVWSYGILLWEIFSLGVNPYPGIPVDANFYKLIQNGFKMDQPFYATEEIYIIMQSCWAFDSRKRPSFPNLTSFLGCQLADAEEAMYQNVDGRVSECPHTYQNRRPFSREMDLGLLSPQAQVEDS

FLT3-ITD = target: T3, FLT3-ITD (Homo sapiens, UniProt P36888)
T3 sequence (P36888 1-993): T2 sequence (P36888 1-993 D835Y) with Y835D
Summary of the method: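 Radiometric [γ-33P]ATP assay in HEPES pH 7.5 with Mg2+/Mn2+: CDK1/Cyclin B (Sf9-expressed) and purchased CDK5/p35 with 1 mg/mL histone H1 at 15 and 0.15 μM ATP respectively; FLT3 WT and FLT3-ITD with AGLT substrate at 1 μM ATP. Reactions stopped with H3PO4, spotted onto phosphocellulose and washed.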

[1] = AGLT substrate, 1 μM ATP, read-out: IC50 values (μM) FLT3 ITD

Compound | IC50 (CDK2/Cyclin E) | IC50 (FLT3 D835) | IC50 (FLT3-ITD; [1]) | IC50 (FLT3-ITD; comparative example, read-out: Influence of compounds on protein kinase inhibition, IC50 values (μM) FLT3 ITD)
NC1CCC(Nc2nc(Nc3ccc(CN4CCOCC4)cc3)c3ncn(C4CCCC4)c3n2)CC1 (centres unmarked) [Compound 264] | 0.007 µM | 0.009 µM | 0.001 µM | 0.001 µM
NC1CCC(Nc2nc(Nc3ccc(N4CC5(COC5)C4)cc3)c3ncn(C4CCCC4)c3n2)CC1 (centres unmarked) [Compound 272] | 0.025 µM | – | – | –
NCCCCNc1nc(Nc2ccc(N3CCOCC3)cc2)c2ncn(C3CCCC3)c2n1 [Compound 265] | 0.642 µM | 0.007 µM | 0.004 µM | –
NCCCCNc1nc(Nc2ccc(CN3CCOCC3)cc2)c2ncn(C3CCCC3)c2n1 [Compound 270] | 0.625 µM | 0.005 µM | 0.002 µM | –
CN1CC2(C1)CN(c1ccc(Nc3nc(NC4CCC(O)CC4)nc4c3ncn4C3CCCC3)cc1)C2 (centres unmarked) [Compound 7] | 0.006 µM | 0.011 µM | 0.005 µM | –
CN1CCN(C(=O)c2ccc(Nc3nc(NCCCCN)nc4c3ncn4C3CCCC3)cc2)CC1 [Compound 27] | 0.002 µM | 0.011 µM | 0.002 µM | –
NC1CCC(Nc2nc(Nc3ccc(N4CCCC4)cc3)c3ncn(C4CCCC4)c3n2)CC1 (centres unmarked) [Compound 263] | 0.031 µM | 0.011 µM | 0.003 µM | –
NCCNc1nc(Nc2ccc(CN3CCNCC3)cc2)c2ncn(C3CCCC3)c2n1 [Compound 14] | 0.004 µM | 0.01 µM | 0.004 µM | –
CN(C)CCCNc1nc(Nc2ccc(C(=O)N3CCOCC3)nc2)c2ncn(C3CCCC3)c2n1 [Compound 179] | 0.04 µM | 0.023 µM | 0.012 µM | –
CCN1CCN(c2ccc(Nc3nc(NCCCCN)nc4c3ncn4C3CCCC3)cc2)CC1 [Compound 266] | 0.586 µM | 0.003 µM | 0.002 µM | –

Continued, in another order:

IC50 (CDK2/Cyclin E) | IC50 (FLT3 D835) | IC50 (FLT3-ITD; [1]) | Compound | IC50 (FLT3-ITD; comparative example, read-out: Influence of compounds on protein kinase inhibition, IC50 values (μM) FLT3 ITD)
0.008 µM | 0.003 µM | 0.004 µM | NC1CCC(Nc2nc(Nc3ccc(CN4CCNCC4)cc3)c3ncn(C4CCCC4)c3n2)CC1 (centres unmarked) [Compound 2] | –
0.004 µM | 0.003 µM | 0.007 µM | CN1CCN(C(=O)c2ccc(Nc3nc(NC4CCC(N)CC4)nc4c3ncn4C3CCCC3)cc2)CC1 (centres unmarked) [Compound 3] | –
0.016 µM | 0.005 µM | 0.003 µM | CN(C)CCNc1nc(Nc2ccc(CN3CCOCC3)nc2)c2ncn(C3CCCC3)c2n1 [Compound 172] | –
0.017 µM | 0.007 µM | 0.002 µM | NC1CCC(Nc2nc(Nc3ccc(N4CCOCC4)cc3)c3ncn(C4CCCC4)c3n2)CC1 (centres unmarked) [Compound 1] | –
0.028 µM | 0.002 µM | 0.003 µM | NCCCCNc1nc(Nc2ccc(N3CC4(COC4)C3)nc2)c2ncn(C3CCCC3)c2n1 [Compound 28] | –
